Experimental data reported in patent US12234212B2, “Peptide conjugates of microtubule-targeting agents as therapeutics” (Cybrexa 3, Inc., priority 2019, dated 2025).

Tests used:
HCT116 = experiment: Growth delay assay, HCT116; type: cell-based, human; conditions: HCT116 cells, 96 hours after addition of drug, cell count (Hoechst)
Description: (§1) Cells were plated in 96 well black walled-clear bottom plates (Griener), DLD-1 WT cells at 2500 cells per well, FaDu, and HeLa cells at 5000 cells per well, and HCT116 at 3000 cells per well, in growth media containing […]. Cells were allowed to adhere at room temperature for 60 minutes before returning to a 37 C, 5% CO2 incubator. After 24 hours, media was removed and replaced with fresh growth media containing various drug concentrations. Each drug concentration was added in triplicate. Non-drug treated controls contained growth media only. Cells were returned to the incubator. Ninety-six hours after addition of drug, cells were fixed with […] for 20 minutes and stained with Hoechst at 1 μg/mL. The plates were imaged on a Cytation 5 auto imager (BioTek) and cells were counted using CellProfiler (http://cellprofiler.org). The percent cell growth delay was calculated and data plotted using GraphPad Prism

FaDu = experiment: Growth delay assay, FaDu; type: cell-based; conditions: FaDu cells, 96 hours after addition of drug, cell count (Hoechst)
Description: as §1

HeLa cells = experiment: Growth delay assay, HeLa; type: cell-based; conditions: 96 hours after addition of drug, cell count (Hoechst)
Description: as §1

DLD-1 WT cells = experiment: Growth delay assay, DLD-1; type: cell-based; conditions: DLD-1 cells, 96 hours after addition of drug, cell count (Hoechst)
Description: as §1

[1] = system: nude mice bearing HCT116 colorectal flank tumors; experiment: Mouse colorectal cancer model, Kaplan-Meier survival; type: in vivo; conditions: IP, QDX4; DM4 0.42 μmole/kg; Compound 5 0.21-0.42 μmole/kg; post-dosing period
Description: Six-week-old female athymic nude Foxn^nu mice were obtained from Taconic Labs (Cat #NCRNU-F) and were housed 5 per cage on Alpha-Dri bedding in a disposable caging system. Human HCT116 cells derived from colorectal carcinoma were diluted 1:1 in Phenol Red-free Matrigel and subcutaneously implanted into the left flank of each mouse at a density of 2.5×10^6 cells in 100 μL. When xenografts reached a mean volume of 100-200 mm^3, mice were randomized into groups and treated as detailed in the table below. Mice were administered intraperitoneal (IP) doses of vehicle or 0.21, 0.29, 0.35, 0.42 μmole/kg Compound 5 (equivalent to 1.1, 1.4, 1.7, or 2 mg/kg Compound 5) or 0.42 μmole/kg unconjugated DM4 (equivalent to 0.33 mg/kg unconjugated DM4). Doses were prepared by diluting 0.1 mg/μL DMSO stocks in 5% mannitol in citrate buffer and were administered QDX4 with a two day interval between the second and third doses, at a volume of 12 mL/kg (300 μL per 25 g mouse). Xenograft tumors were measured by calipers and volume was calculated using the equation for ellipsoid volume: Volume=π/6×(length)×(width)^2. Body weight of animals was measured at the same time as tumor volume assessment. Animals were removed from the study due to death, tumor size exceeding 2000 mm^3 or loss of >20% body weight. Kaplan-Meier analysis was used to evaluate survival rate based on death or removal from study.

[2] = system: T1, Biotin-labeled human tubulin derived from HeLa cells (β-tubulin); experiment: Kinetic analysis of conjugate binding (Biacore surface plasmon resonance); conditions: Biacore S200, 25° C., immobilized tubulin; read-out: KD (affinity constant, steady state) for β-tubulin
T1 construct: fused on or other part: Biotin label, used for capture on a streptavidin sensor chip
Description: Binding experiments were performed using a Biacore S200 instrument. A Series S sensor chip with pre-immobilized streptavidin was conditioned with 1 M NaCl in 50 mM NaOH. Biotin-labeled human tubulin derived from HeLa cells was immobilized to the sensor chip at a concentration of 125 μg/mL in HBS-P+ buffer at a flow rate of 10 μl/min. A final 3000 RU (response units) of protein was directly immobilized to the chip. After tubulin immobilization, the sensor chip was washed with 50% isopropanol, 50 mM NaOH and 1 M NaCl and subsequently allowed to equilibrate in assay buffer for 4 hours. A streptavidin-biotin capture blank (reference FC) was used to monitor non-specific binding.
To collect kinetic binding data, Compound 5 diluted in assay buffer was injected over the flow cells at concentrations ranging from 100 μM to 0.048 μM and 50 μM to 0.024 μM, at a flow rate of 60 μL/minute and a temperature of 25° C. The complex was allowed to dissociate for 60 seconds. Binding of compound to tubulin was monitored in real time to obtain on (Ka) and off (Koff) rates. The affinity constant (KD) was calculated by steady state kinetics.

Compound	IC50 (HCT116) [nM]	IC50 (FaDu) [nM]	IC50 (HeLa cells) [nM]	IC50 (DLD-1 WT cells) [nM]	survival / systemic toxicity (Kaplan-Meier) [1]	IC50 (HCT116; Homo sapiens, HCT-116) [nM]	IC50 (FaDu; Homo sapiens) [nM]	IC50 (HeLa cells; Homo sapiens) [nM]	IC50 (DLD-1 WT cells; Homo sapiens) [nM]	Kd [2] [nM]
COc1cc2cc(c1Cl)N(C)C(=O)C[C@H](OC(=O)[C@H](C)N(C)C(=O)CCSSC[C@H](NC(=O)[C@H](Cc1c[nH]c3ccccc13)NC(=O)[C@H](CC(C)C)NC(=O)[C@H](CC(C)C)NC(=O)[C@H](CC(=O)O)NC(=O)[C@H](CC(C)C)NC(=O)[C@H](CC(C)C)NC(=O)[C@H](CC(C)C)NC(=O)[C@@H](NC(=O)[C@H](CC(=O)O)NC(=O)[C@@H](NC(=O)[C@@H]1CCCN1C(=O)[C@H](Cc1ccccc1)NC(=O)[C@H](CC(C)C)NC(=O)[C@H](CC(C)C)NC(=O)[C@H](CC(=O)O)NC(=O)[C@H](CC(C)C)NC(=O)[C@H](Cc1ccc(O)cc1)NC(=O)[C@H](C)NC(=O)[C@H](CCCNC(=N)N)NC(=O)[C@H](Cc1c[nH]c3ccccc13)NC(=O)[C@@H]1CCCN1C(=O)[C@H](CC(N)=O)NC(=O)[C@H](CCC(N)=O)NC(=O)[C@H](CC(=O)O)NC(=O)[C@H](CC(=O)O)NC(=O)[C@H](C)N)[C@@H](C)O)[C@@H](C)O)C(=O)NCC(=O)O)[C@]1(C)O[C@H]1[C@H](C)[C@@H]1C[C@@](O)(NC(=O)O1)[C@H](OC)/C=C/C=C(\C)C2 [Compound 1]	21.8	10.4	7.4	60.5						
COc1cc2cc(c1Cl)N(C)C(=O)C[C@H](OC(=O)[C@H](C)N(C)C(=O)CCC(C)(C)SSC[C@H](NC(=O)[C@H](Cc1c[nH]c3ccccc13)NC(=O)[C@H](CC(C)C)NC(=O)[C@H](CC(C)C)NC(=O)[C@H](CC(=O)O)NC(=O)[C@H](CC(C)C)NC(=O)[C@H](CC(C)C)NC(=O)[C@H](CC(C)C)NC(=O)[C@@H](NC(=O)[C@H](CC(=O)O)NC(=O)[C@@H](NC(=O)[C@@H]1CCCN1C(=O)[C@H](Cc1ccccc1)NC(=O)[C@H](CC(C)C)NC(=O)[C@H](CC(C)C)NC(=O)[C@H](CC(=O)O)NC(=O)[C@H](CC(C)C)NC(=O)[C@H](Cc1ccc(O)cc1)NC(=O)[C@H](C)NC(=O)[C@H](CCCNC(=N)N)NC(=O)[C@H](Cc1c[nH]c3ccccc13)NC(=O)[C@@H]1CCCN1C(=O)[C@H](CC(N)=O)NC(=O)[C@H](CCC(N)=O)NC(=O)[C@H](CC(=O)O)NC(=O)[C@H](CC(=O)O)NC(=O)[C@H](C)N)[C@@H](C)O)[C@@H](C)O)C(=O)NCC(=O)O)[C@]1(C)O[C@H]1[C@H](C)[C@@H]1C[C@@](O)(NC(=O)O1)[C@H](OC)/C=C/C=C(\C)C2 [Compound 5]					safely delivers amounts of DM4 in vivo					
COc1cc2cc(c1Cl)N(C)C(=O)C[C@H](OC(=O)[C@H](C)N(C)C(=O)CCS)C1(C)O[C@H]1[C@H](C)[C@@H]1C[C@@](O)(NC(=O)O1)[C@H](OC)/C=C/C=C(\C)C2 (stereo partly drawn) [R^2SH-1, [(1S,2R,3S,6S,16E,18E,20R,21S)-11-chloro-21-hydroxy-12,20-dimethoxy-2,5,9,16-tetramethyl-8,23-dioxo-4,24-dioxa-9,22-diazatetracyclo[19.3.1.110,14.03,5]hexacosa-10(26),11,13,16,18-pentaen-6-yl] (2S)-2-[methyl(3-sulfanylpropanoyl)amino]propanoate]						4.3	2.8	2.6	9.8	
COc1cc2cc(c1Cl)N(C)C(=O)C[C@H](OC(=O)[C@H](C)N(C)C(=O)CCC(C)(C)S)C1(C)O[C@H]1[C@H](C)[C@@H]1C[C@@](O)(NC(=O)O1)[C@H](OC)/C=C/C=C(\C)C2 (stereo partly drawn) [R^2SH-2, [(1S,2R,3S,6S,16E,18E,20R,21S)-11-chloro-21-hydroxy-12,20-dimethoxy-2,5,9,16-tetramethyl-8,23-dioxo-4,24-dioxa-9,22-diazatetracyclo[19.3.1.110,14.03,5]hexacosa-10,12,14(26),16,18-pentaen-6-yl] (2S)-2-[methyl-(4-methyl-4-sulfanyl-pentanoyl)amino]propanoate]					spontaneous death of half of the DM4 group of animals	0.2	0.13	0.02	0.45	3550
